Laboratory results reported in PMC10252683, “Targeting USP-7 by a Novel Fluorinated 5-Pyrazolyl-Urea Derivative” (International Journal of Molecular Sciences, 2023).

Target: T1, Ubiquitin Specific Protease 7 (USP-7) (Homo sapiens, UniProt Q93009)
T1 construct: gene USP7; recombinant USP-7 (BPS Bioscience kit #79256)
Experiment: Ub-AMC fluorescence enzyme assay; supported by DARTS immunoblotting and t-LiP-MRM in HTLA-230 lysate
Format: biochemical

T1 sequence (Q93009 whole entry): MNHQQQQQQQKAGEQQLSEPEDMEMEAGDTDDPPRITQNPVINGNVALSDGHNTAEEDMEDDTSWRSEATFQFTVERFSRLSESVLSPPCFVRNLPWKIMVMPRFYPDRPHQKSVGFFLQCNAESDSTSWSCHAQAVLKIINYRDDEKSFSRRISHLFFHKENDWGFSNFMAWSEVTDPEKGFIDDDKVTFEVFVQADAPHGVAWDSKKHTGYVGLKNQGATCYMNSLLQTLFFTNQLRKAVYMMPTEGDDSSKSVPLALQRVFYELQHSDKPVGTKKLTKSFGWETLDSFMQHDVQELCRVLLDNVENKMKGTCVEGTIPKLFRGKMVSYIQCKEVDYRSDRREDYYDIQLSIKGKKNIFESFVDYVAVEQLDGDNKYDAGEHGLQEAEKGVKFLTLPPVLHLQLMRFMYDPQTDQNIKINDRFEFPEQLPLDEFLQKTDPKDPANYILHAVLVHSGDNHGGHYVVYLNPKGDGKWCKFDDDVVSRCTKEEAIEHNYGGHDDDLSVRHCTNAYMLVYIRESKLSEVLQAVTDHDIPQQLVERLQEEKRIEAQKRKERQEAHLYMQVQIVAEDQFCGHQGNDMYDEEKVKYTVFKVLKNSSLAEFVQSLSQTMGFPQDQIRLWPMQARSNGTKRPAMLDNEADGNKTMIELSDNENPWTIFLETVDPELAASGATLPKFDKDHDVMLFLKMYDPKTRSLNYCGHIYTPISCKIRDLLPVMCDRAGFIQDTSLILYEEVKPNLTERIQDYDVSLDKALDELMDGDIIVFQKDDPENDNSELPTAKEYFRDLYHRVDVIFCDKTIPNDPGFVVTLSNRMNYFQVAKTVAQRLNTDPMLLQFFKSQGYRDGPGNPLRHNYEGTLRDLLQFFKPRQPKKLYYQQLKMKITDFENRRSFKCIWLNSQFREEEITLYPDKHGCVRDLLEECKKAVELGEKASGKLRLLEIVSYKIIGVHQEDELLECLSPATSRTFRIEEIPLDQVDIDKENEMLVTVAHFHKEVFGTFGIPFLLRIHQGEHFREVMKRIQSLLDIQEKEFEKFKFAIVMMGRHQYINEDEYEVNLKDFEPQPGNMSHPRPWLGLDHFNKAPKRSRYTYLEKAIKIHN

- IC50: 2.77 ± 0.56 µM
Compound: CCOC(=O)c1cnn(CC(C)O)c1NC(=O)Nc1cccc(F)c1 (racemic) [STIRUR 41]
